Laboratory results reported in patent US12281095B2, “Pesticidally active diazine-amide compounds” (SYNGENTA CROP PROTECTION AG, priority 2019, dated 2025).

Columns and labels:
Type in all cases: in vivo
[1] = test system: Diabrotica balteata (Corn Root Worm); test: Example B1: Diabrotica balteata (Corn Root Worm), sprayed maize sprouts; settings: 96 h, application rate of 200 ppm, L2 larvae, 4 days after infestation, read-out: control in at least one of the two categories (mortality or growth inhibition)
Description: Example B1: Diabrotica balteata (Corn Root Worm)
Maize sprouts placed onto an agar layer in 24-well microtiter plates were treated with aqueous test solutions prepared from 10′000 ppm DMSO stock solutions by spraying. After drying, the plates were infested with L2 larvae (6 to 10 per well). The samples were assessed for mortality and growth inhibition in comparison to untreated samples 4 days after infestation.

[2] = test system: Chilo suppressalis (Striped Rice Stemborer); test: Example B4: Chilo suppressalis (Striped Rice Stemborer), artificial diet; settings: 144 h, application rate of 200 ppm, L2 larvae, 6 days after infestation, read-out: control in at least one of the three categories (mortality, anti-feedant or growth inhibition)
Description: Example B4: Chilo suppressalis (Striped Rice Stemborer)
24-well microtiter plates with artificial diet were treated with aqueous test solutions prepared from 10′000 ppm DMSO stock solutions by pipetting. After drying, the plates were infested with L2 larvae (6-8 per well). The samples were assessed for mortality, anti-feeding effect, and growth inhibition in comparison to untreated samples 6 days after infestation. Control of Chilo suppressalis by a test sample is given when at least one of the categories mortality, anti-feedant effect, and growth inhibition is higher than the untreated sample.

[3] = test system: Plutella xylostella (Diamond Back Moth); test: Example B5: Plutella xylostella (Diamond Back Moth), artificial diet, 24-well; settings: 192 h, application rate of 200 ppm, eggs, 8 days after infestation, read-out: control in at least one of the two categories (mortality or growth inhibition)
Description: Example B5: Plutella xylostella (Diamond Back Moth)
24-well microtiter plates with artificial diet were treated with aqueous test solutions prepared from 10′000 ppm DMSO stock solutions by pipetting. After drying, Plutella eggs were pipetted through a plastic stencil onto a gel blotting paper and the plate was closed with it. The samples were assessed for mortality and growth inhibition in comparison to untreated samples 8 days after infestation.

[4] = test system: Plutella xylostella (Diamondback Moth); test: Example B13: Plutella xylostella (Diamondback Moth), artificial diet, 96-well; settings: 216 h, application rate of 500 ppm, eggs/L1 larvae, 9 days after infestation
Description: Example B13: Plutella xylostella (Diamondback Moth)
96-well microtiter plates containing artificial diet were treated with aqueous test solutions, prepared from 10′000 ppm DMSO stock solutions, by a liquid handling robot. After drying, eggs (˜30 per well) were infested onto a netted lid which was suspended above the diet. The eggs hatch and L1 larvae move down to the diet. The samples were assessed for mortality 9 days after infestation.

[5] = test system: Spodoptera littoralis (Egyptian Cotton Leaf Worm); test: Example B9: Spodoptera littoralis (Egyptian Cotton Leaf Worm), sprayed cotton leaf discs; settings: foliar, 72 h, application rate of 200 ppm, L1 larvae, 3 days after infestation, read-out: control in at least one of the three categories (mortality, anti-feedant or growth inhibition)
[6] = test system: Euschistus heros (Neotropical Brown Stink Bug); test: Example B2: Euschistus heros (Neotropical Brown Stink Bug), sprayed soybean leaves; settings: 120 h, application rate of 200 ppm, N2 nymphs, 5 days after infestation, read-out: control in at least one of the two categories (mortality or growth inhibition)
Description: Example B2: Euschistus heros (Neotropical Brown Stink Bug)
Soybean leaves on agar in 24-well microtiter plates were sprayed with aqueous test solutions prepared from 10′000 ppm DMSO stock solutions. After drying the leaves were infested with N2 nymphs. The samples were assessed for mortality and growth inhibition in comparison to untreated samples 5 days after infestation.

CC(NC(=O)c1cc(C2CC2)cc(C(F)(F)F)c1)c1nccnc1-c1ccc(OCC(F)(F)F)cn1 (stereo not drawn) [P27, 3-cyclopropyl-N-[1-[3-[5-(2,2,2-trifluoroethoxy)-2-pyridyl]pyrazin-2-yl]ethyl]-5-(trifluoromethyl)benzamide]
≥ 80%: percent control (mortality or growth inhibition) at 200 ppm [1] | percent control (mortality, anti-feedant effect or growth inhibition) at 200 ppm [2] | percent control (mortality or growth inhibition) at 200 ppm [3] | mortality at 500 ppm [4]

CC(NC(=O)c1cc(C(F)(F)F)nc(C2(C#N)CC2)c1)c1nccnc1-c1ccc(OCC(F)(F)F)cn1 (stereo not drawn) [P23, 2-(1-cyanocyclopropyl)-N-[1-[3-[5-(2,2,2-trifluoroethoxy)-2-pyridyl]pyrazin-2-yl]ethyl]-6-(trifluoromethyl)pyridine-4-carboxamide]
≥ 80%: percent control (mortality or growth inhibition) at 200 ppm [1] | percent control (mortality, anti-feedant effect or growth inhibition) at 200 ppm [2] | percent control (mortality or growth inhibition) at 200 ppm [3] | percent control (mortality, anti-feedant effect or growth inhibition) at 200 ppm [5] | mortality at 500 ppm [4]

CC(NC(=O)c1cc(C(F)(F)F)cc(S(=O)(=O)C(F)(F)F)c1)c1nccnc1-c1ncc(OC(F)F)cn1 (stereo not drawn) [P19, N-[1-[3-[5-(difluoromethoxy)pyrimidin-2-yl]pyrazin-2-yl]ethyl]-3-(trifluoromethyl)-5-(trifluoromethylsulfonyl)benzamide]
≥ 80%: percent control (mortality or growth inhibition) at 200 ppm [1] | percent control (mortality, anti-feedant effect or growth inhibition) at 200 ppm [2] | percent control (mortality or growth inhibition) at 200 ppm [3] | percent control (mortality, anti-feedant effect or growth inhibition) at 200 ppm [5] | mortality at 500 ppm [4]

CC(NC(=O)c1cc(C2CC2)cc(C(F)(F)F)c1)c1nccnc1-c1ncc(OC(F)F)cn1 (stereo not drawn) [P41, 3-cyclopropyl-N-[1-[3-[5-(difluoromethoxy)pyrimidin-2-yl]pyrazin-2-yl]ethyl]-5-(trifluoromethyl)benzamide]
≥ 80%: percent control (mortality or growth inhibition) at 200 ppm [1] | percent control (mortality, anti-feedant effect or growth inhibition) at 200 ppm [2] | percent control (mortality or growth inhibition) at 200 ppm [3] | percent control (mortality, anti-feedant effect or growth inhibition) at 200 ppm [5] | mortality at 500 ppm [4]

CC(NC(=O)c1cc(C(F)(F)F)cc(C2(C#N)CC2)c1)c1nccnc1-c1ccc(OCC(F)(F)F)cn1 (stereo not drawn) [P24, 3-(1-cyanocyclopropyl)-N-[1-[3-[5-(2,2,2-trifluoroethoxy)-2-pyridyl]pyrazin-2-yl]ethyl]-5-(trifluoromethyl)benzamide]
≥ 80%: percent control (mortality or growth inhibition) at 200 ppm [1] | percent control (mortality, anti-feedant effect or growth inhibition) at 200 ppm [2] | percent control (mortality or growth inhibition) at 200 ppm [3] | percent control (mortality, anti-feedant effect or growth inhibition) at 200 ppm [5] | mortality at 500 ppm [4]

CC(NC(=O)c1cc(C2CC2)cc(C(F)(F)F)c1)c1nccnc1-c1ccc(OCC(F)F)cn1 (stereo not drawn) [P26, 3-cyclopropyl-N-[1-[3-[5-(2,2-difluoroethoxy)-2-pyridyl]pyrazin-2-yl]ethyl]-5-(trifluoromethyl)benzamide]
≥ 80%: percent control (mortality, anti-feedant effect or growth inhibition) at 200 ppm [2] | percent control (mortality or growth inhibition) at 200 ppm [3] | percent control (mortality, anti-feedant effect or growth inhibition) at 200 ppm [5] | mortality at 500 ppm [4]

CC(NC(=O)c1cc(C(F)(F)F)cc(C(F)(F)C2CC2)c1)c1nccnc1-c1ncc(OC(F)F)cn1 (stereo not drawn) [P29, 3-[cyclopropyl(difluoro)methyl]-N-[1-[3-[5-(difluoromethoxy)pyrimidin-2-yl]pyrazin-2-yl]ethyl]-5-(trifluoromethyl)benzamide]
≥ 80%: percent control (mortality or growth inhibition) at 200 ppm [1] | percent control (mortality or growth inhibition) at 200 ppm [6] | percent control (mortality, anti-feedant effect or growth inhibition) at 200 ppm [2] | percent control (mortality or growth inhibition) at 200 ppm [3] | percent control (mortality, anti-feedant effect or growth inhibition) at 200 ppm [5] | mortality at 500 ppm [4]

CC(NC(=O)c1cc(C2CC2C(F)(F)F)cc(C(F)(F)F)c1)c1nccnc1-c1ncc(OCC(F)F)cn1 (stereo not drawn) [P38, N-[1-[3-[5-(2,2-difluoroethoxy)pyrimidin-2-yl]pyrazin-2-yl]ethyl]-3-(trifluoromethyl)-5-[2-(trifluoromethyl)cyclopropyl]benza-mide]
≥ 80%: percent control (mortality or growth inhibition) at 200 ppm [1] | percent control (mortality, anti-feedant effect or growth inhibition) at 200 ppm [2] | percent control (mortality or growth inhibition) at 200 ppm [3] | percent control (mortality, anti-feedant effect or growth inhibition) at 200 ppm [5] | mortality at 500 ppm [4]

CC(NC(=O)c1cc(C(F)(F)F)cc(C(F)(F)C2CC2)c1)c1nccnc1-c1ccc(OCC(F)(F)F)cn1 (stereo not drawn) [P31, 3-[cyclopropyl(difluoro)methyl]-N-[1-[3-[5-(2,2,2-trifluoroethoxy)-2-pyridyl]pyrazin-2-yl]ethyl]-5-(trifluoromethyl)benzamide]
≥ 80%: mortality at 500 ppm [4]

CC(NC(=O)c1cc(C(F)(F)F)cc(C2(C#N)CC2)c1)c1nccnc1-c1ccc(OCC(F)F)cn1 (stereo not drawn) [P33, 3-(1-cyanocyclopropyl)-N-[1-[3-[5-(2,2-difluoroethoxy)-2-pyridyl]pyrazin-2-yl]ethyl]-5-(trifluoromethyl)benzamide]
≥ 80%: percent control (mortality or growth inhibition) at 200 ppm [1] | percent control (mortality, anti-feedant effect or growth inhibition) at 200 ppm [2] | percent control (mortality or growth inhibition) at 200 ppm [3] | percent control (mortality, anti-feedant effect or growth inhibition) at 200 ppm [5] | mortality at 500 ppm [4]

CC(NC(=O)c1cc(C(F)(F)F)cc(S(=O)(=O)C(F)(F)F)c1)c1nccnc1-c1ncc(OCC(F)F)cn1 (stereo not drawn) [P28, N-[1-[3-[5-(2,2-difluoroethoxy)pyrimidin-2-yl]pyrazin-2-yl]ethyl]-3-(trifluoromethyl)-5-(trifluoromethylsulfonyl)benzamide]
≥ 80%: percent control (mortality or growth inhibition) at 200 ppm [1] | percent control (mortality or growth inhibition) at 200 ppm [6] | percent control (mortality, anti-feedant effect or growth inhibition) at 200 ppm [2] | percent control (mortality or growth inhibition) at 200 ppm [3] | percent control (mortality, anti-feedant effect or growth inhibition) at 200 ppm [5] | mortality at 500 ppm [4]

CC(NC(=O)c1cc(C(F)(F)F)cc(S(=O)(=O)C(F)(F)F)c1)c1nccnc1-c1ccc(OCC(F)F)cn1 (stereo not drawn) [P20, N-[1-[3-[5-(2,2-difluoroethoxy)-2-pyridyl]pyrazin-2-yl]ethyl]-3-(trifluoromethyl)-5-(trifluoromethylsulfonyl)benzamide]
≥ 80%: percent control (mortality, anti-feedant effect or growth inhibition) at 200 ppm [2] | mortality at 500 ppm [4]

CC(NC(=O)c1cc(C(F)(F)F)cc(C(F)(F)C2CC2)c1)c1nccnc1-c1ncc(OCC(F)(F)F)cn1 (stereo not drawn) [P4, 3-[cyclopropyl(difluoro)methyl]-N-[1-[3-[5-(2,2,2-trifluoroethoxy)pyrimidin-2-yl]pyrazin-2-yl]ethyl]-5-(trifluoromethyl)benzamide]
≥ 80%: percent control (mortality or growth inhibition) at 200 ppm [1] | percent control (mortality, anti-feedant effect or growth inhibition) at 200 ppm [2] | percent control (mortality or growth inhibition) at 200 ppm [3] | percent control (mortality, anti-feedant effect or growth inhibition) at 200 ppm [5]

CC(NC(=O)c1cc(C(F)(F)F)cc(C(C)(C)C#N)c1)c1nccnc1-c1ccc(OC(F)F)cn1 (stereo not drawn) [P13, 3-(1-cyano-1-methyl-ethyl)-N-[1-[3-[5-(difluoromethoxy)-2-pyridyl]pyrazin-2-yl]ethyl]-5-(trifluoromethyl)benzamide]
≥ 80%: percent control (mortality or growth inhibition) at 200 ppm [1] | percent control (mortality, anti-feedant effect or growth inhibition) at 200 ppm [2] | percent control (mortality or growth inhibition) at 200 ppm [3] | percent control (mortality, anti-feedant effect or growth inhibition) at 200 ppm [5]

CC(NC(=O)c1cc(C(F)(F)F)nc(C2(C#N)CC2)c1)c1nccnc1-c1ccc(OC(F)F)cn1 (stereo not drawn) [P1, 2-(1-cyanocyclopropyl)-N-[1-[3-[5-(difluoromethoxy)-2-pyridyl]pyrazin-2-yl]ethyl]-6-(trifluoromethyl)pyridine-4-carboxamide]
≥ 80%: percent control (mortality or growth inhibition) at 200 ppm [1] | percent control (mortality, anti-feedant effect or growth inhibition) at 200 ppm [2] | percent control (mortality or growth inhibition) at 200 ppm [3] | percent control (mortality, anti-feedant effect or growth inhibition) at 200 ppm [5]

CC(NC(=O)c1cc(C(F)(F)F)cc(C(F)(F)C2CC2)c1)c1nccnc1-c1ncc(OCC(F)F)cn1 (stereo not drawn) [P39, 3-[cyclopropyl(difluoro)methyl]-N-[1-[3-[5-(2,2-difluoroethoxy)pyrimidin-2-yl]pyrazin-2-yl]ethyl]-5-(trifluoromethyl)benzamide]
≥ 80%: percent control (mortality, anti-feedant effect or growth inhibition) at 200 ppm [2] | percent control (mortality or growth inhibition) at 200 ppm [3] | percent control (mortality, anti-feedant effect or growth inhibition) at 200 ppm [5] | mortality at 500 ppm [4]
